Where two headings read alike, the source gives them in different places.
Biological target: T1, α-7 nicotinic ACh receptor ion channels expressed in mammalian HEK 293 cells (Rattus norvegicus, UniProt Q05941)
T1 construct: expressed in transfected cells
Experiment: Ca2+-sensitive, fluorescence-based assay for α-7 nicotinic acetylcholine receptor channel function (FLIPR)
Format: cell-based
Experimental: II) A Ca^2+-Sensitive, Fluorescence-Based Assay α-7 for Nicotinic Acetylcholine Receptor Channel Function In Mammalian Cells (“FLIPR”).
Lead compounds are evaluated for agonist activity at α-7, α3β4, α4αβ2, and α1β1δ1ε sub-types of nicotinic ACh receptor ion channels expressed in mammalian HEK 293 cells. Agonist potency and efficacy values are determined from kinetic fluorescence Ca^2+ influx measurements made using a 384 well FLIPR (Fluorescence Image Plate Reader). […] In this assay, channel expressing HEK cell lines seeded in 384 well assay plates are loaded with a membrane permeant fluorescent Ca^2+ indicator dye, whose 510 nm green emission signal increases in response to elevation of intracellular Ca^2+ concentration. The basal fluorescence from the cells is monitored in real time, followed by the acute addition of test compounds.
Reagents: The acetomethoxy (AM) ester of the Ca^2+ indicator dye Fluo-4 was obtained from InVitrogen, (Carlsbad, Calif.). Acetylcholine and all buffer constituents were purchased from Sigma Chemical Company, St. Louis, Mo. G418 and Minimal Essential Medium were purchased from InVitrogen Life Technologies, Carlsbad, Calif. Fetal bovine serum was purchased from (InVitrogen, Carlsbad, Calif.).
HEK-293 cells were grown in Minimal Essential Medium containing 10% (v/v) fetal bovine serum at 37° C. in a 5% CO2 incubator. HEK-293 cells stably expressing the ion channels were grown in the same medium with the addition of 500 μg/ml G418.
HEK-293 cells expressing the ion channels of interest were plated in 384 well, black-walled, clear-bottomed, poly-D-lysine coated plates at a density of ˜20,000 cells/well in 20 μl of Minimal Essential Medium containing 10% (v/v) fetal bovine serum and incubated for 2 days at 29° C. in a 5% CO2 incubator. Prior to assay, cells were loaded with the Fluo-4 AM ester. […] Dye loading was allowed to proceed for 90 minutes at room temperature at which time the dye loading solution was removed and replaced with 40 μl/well of Hanks buffer. Cells loaded with dye were loaded onto a FLIPR384 (Molecular Devices, Sunnyvale, Calif.). Fluo-4 dye was excited using the 488 nm line of an argon laser. Emission was filtered using a 540+/−30 nm bandpass filter. For evaluation of the effects of test compounds using the Ca^2+ flux assay, compounds to be tested were provided in assay ready plates. For nicotinic receptor ion channel expressing cells, the assay was initiated by the addition of 20 μl/well of Hanks buffer containing test compounds. For all assays, data were collected at 1 Hz for 10 seconds (baseline), at which time the compound containing stimulus buffers are added, and further measurements collected at 0.33 Hz for 3 min.
The statistical robustness of the nicotinic receptor Ca^2+ flux assays is determined from blanks and totals wells. […] The raw fluorescence units data files generated on the FLIPR plate reader are automatically exported and processed by in-house data analysis tools. The reduced percent activation data for each concentration of test compound are fit using MathIQ fitting engine (ID Business Solutions Limited, Surrey, UK). Data were analyzed by fitting maximum amplitudes of change in fluorescence, for Ca^2+ flux for a given condition of test compound. […] Test compound efficacy values (Ymax values) are expressed relative to a maximal response to acetylcholine in the total wells.

[1] = activity class based on EC50, Ca2+ influx, read-out: FLIPR α7 actvity rating (EC50)
[2] = agonist potency, Ca2+ influx, read-out: FLIPR α7-HI (EC50)
[3] = FLIPR α7-HI (EC50, nM), agonist potency, Ca2+ influx
[4] = FLIPR α7 actvity rating (EC50, nM), activity class based on EC50, Ca2+ influx

T1 sequence (Q05941 23-502): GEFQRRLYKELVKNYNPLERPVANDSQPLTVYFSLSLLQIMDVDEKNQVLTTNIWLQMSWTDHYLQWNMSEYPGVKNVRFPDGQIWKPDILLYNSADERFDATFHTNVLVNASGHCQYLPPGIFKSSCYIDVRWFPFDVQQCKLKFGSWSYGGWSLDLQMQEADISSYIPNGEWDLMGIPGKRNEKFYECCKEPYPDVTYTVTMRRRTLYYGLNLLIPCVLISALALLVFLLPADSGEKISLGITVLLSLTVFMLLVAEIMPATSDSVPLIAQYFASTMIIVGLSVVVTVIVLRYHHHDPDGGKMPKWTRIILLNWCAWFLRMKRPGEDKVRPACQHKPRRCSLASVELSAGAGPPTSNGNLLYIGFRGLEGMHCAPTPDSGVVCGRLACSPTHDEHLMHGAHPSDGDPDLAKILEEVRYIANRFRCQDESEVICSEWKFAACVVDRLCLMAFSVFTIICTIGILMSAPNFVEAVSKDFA

Row | Structure (SMILES) | EC50 [1] [nM] | EC50 [2] [nM] | EC50 [3] [nM] | EC50 [4] [nM] | EC50 (read-out: FLIPR α7 actvity rating (EC50), activity class based on EC50, Ca2+ influx) [nM]
1 | c1ccc2sc(NC3=NC[C@@]4(C[N@]5CCC[C@H]4C5)O3)nc2c1 (relative stereo) [Example 1, (5S*,5′R*)—N-(benzo[d]thiazol-2-yl)-4′H-1-azaspiro[bicyclo[3.2.1]octane-6,5′-oxazol]-2′-amine] | 1000 to 100000 | > 100000 | – | – | –
2 | c1cnc2sc(NC3=NCC4(CN5CCCC4C5)O3)nc2c1 (single isomer, unassigned) [Example 5a] | – | – | 105 | < 100 | –
3 | c1ccc2cc(NC3=NC[C@@]4(C[N@]5CCC[C@H]4C5)O3)ncc2c1 (single isomer, unassigned) [Example 4, (5S*,5R*)—N-(isoquinolin-3-yl)-4′H-1-azaspiro[bicyclo[3.2.1]octane-6,5′-oxazol]-2′-amine] | – | – | 820 | < 100 | –
4 | c1cnc2sc(NC3=NC[C@@]4(C[N@]5CCC[C@H]4C5)O3)nc2c1 (relative stereo) [Example 3, (5S*,5′R*)—N-(thiazolo[5,4-b]pyridin-2-yl)-4′H-1-azaspiro[bicyclo[3.2.1]octane-6,5′-oxazol]-2′-amine] | – | – | 1080 | 100 to 1000 | –
5 | c1cnc2sc(NC3=NC[C@@]4(C[N@@]5CCC[C@@H]4C5)O3)nc2c1 (relative stereo) [Example 5, (5R*,5′R*)—N-(thiazolo[5,4-b]pyridin-2-yl)-4′H-1-azaspiro[bicyclo[3.2.1]octane-6,5′-oxazol]-2′-amine] | – | – | 132 | < 100 | –
6 | COc1ccc2nc(NC3=NC[C@@]4(C[N@]5CCC[C@H]4C5)O3)sc2c1 (relative stereo) [Example 2, (5S*,5′R*)—N-(6-methoxybenzo[d]thiazol-2-yl)-4′H-1-azaspiro[bicyclo[3.2.1]octane-6,5′-oxazol]-2′-amine] | 100 to 1000 | 2050 | – | – | –
7 | c1cnc2sc(NC3=NCC4(CN5CCCC4C5)O3)nc2c1 (single isomer, unassigned) [Example 5b] | – | – | 88 | – | < 100

Source: patent US8507516B2, “Azabicyclic compounds as alpha-7 nicotinic acetylcholine receptor ligands” (Bristol-Myers Squibb Company, priority 2009, dated 2013)
